Experiments:
[1] = target: wild-type MphR (MphR(A), macrolide biosensor transcription factor), SEQ ID NO: 2 (gene SEQ ID NO: 1, 28) (Escherichia coli, UniProt Q9EVJ6); test: cell-based; conditions: for activation of GFP expression under control of WT MphR: result in words
Description: (§1) The sensitivity of biosensors often requires tailoring to meet specific needs. […] A library of MphR gene mutations and variants was created by error-prone PCR (epPCR).
Molecular Biosystems. […] Previous literature reports various induction ranges for MphR-based biosensors depending on the plasmid construct.
Three and five site saturation mutagenesis libraries of the MphR gene that targeted residues of the ligand binding domain were generated using the Quikchange Multi Site-Directed mutagenesis kit (Agilent) and designated QCMS3 and QCMS5, respectively. A third library was generated via error-prone PCR (epPCR) with an average of two amino acid mutations per library clone. Libraries were transformed into E. coli TOP10 cells with plasmid pJZ12 (See FIG. 16 and sequence below) containing genes MphA and mrx and subjected to an initial round of negative sorting in the absence of added ligand via Fluorescence Activated Cell Sorting (FACS) to eliminate variants that are constitutively expressing GFP.
In Table 1, Hill functions were used to derive biosensor transfer functions. K1/2 is the inducer concentration at half maximal induction. Cooperativity is derived from the Hill function to indicate cooperative ligand binding between protein monomers of the MphR dimer. […] The linear range of detection is the linear portion of the dose-response curve with a slope R^2=0.95 or higher.

[2] = target: MphR variant S106F (pikB1, D3; SEQ ID NO: 10, 38) (Escherichia coli, UniProt Q9EVJ6, S106F); test: cell-based; assay type: cell-based; conditions: for times more sensitive vs. WT: Table 11
Description: as §1
To test this, the aglycone 6-deoxyerythronolide B (6dEB) was produced via an engineered E. coli strain and purified by flash chromatography. […] To extend this to other systems, the ability of MphR was examined to detect macrolide antibiotics from S. venezuelae.
The ability of the MphR clone “PikB1” to detect a Solithromycin biosynthetic intermediate (see structure below) was determined.

[3] = target: T1, MphR variant A16T/T154M/M155K (M2D6; SEQ ID NO: 16, 44) (Escherichia coli, UniProt Q9EVJ6, A16T/M155K/T154M); test: MphR-GFP biosensor dose-response, M2D6; assay type: cell-based; conditions: result in words
T1 construct: GFP under PmphR as reporter
Description: In many cases, it is necessary to determine the presence and concentration of a given polyketide in the presence of other structurally related molecules. Accordingly, the selectivity of MphR requires tailoring towards target molecules.

[4] = target: T2, MphR variant G76C (clone A3/epA3; nt A1G in RBS, aa G76C; SEQ ID NO: 3, 29) (Escherichia coli, UniProt Q9EVJ6, G76C); test: MphR-GFP biosensor dose-response, clone G76C (A3); assay type: cell-based; conditions: Table 1
T2 construct: pMLGFP-derived plasmid, E. coli TOP10 GFP biosensor
Description: (§2) K1/2 is the inducer concentration at half maximal induction. Cooperativity is derived from the Hill function to indicate cooperative ligand binding between protein monomers of the MphR dimer. Dynamic range is the GFP maximal response minus the minimum GFP response, which in all cases was the response with no ligand. The linear range of detection is the linear portion of the dose-response curve with a slope R^2=0.95 or higher.

[5] = system: MphR variant G76C (clone A3/epA3; nt A1G in RBS, aa G76C; SEQ ID NO: 3, 29); test: MphR-GFP biosensor dose-response, clone G76C (A3); assay type: cell-based, Escherichia coli; conditions: Table 11
Description: as §2

[6] = target: T3, MphR variant V90I (clone E7/epE7; nt A4T in RBS, aa V90I; SEQ ID NO: 4, 30) (Escherichia coli, UniProt Q9EVJ6, V90I); test: MphR-GFP biosensor dose-response, clone V90I (E7); assay type: cell-based; conditions: Table 1
T3 construct: E. coli TOP10 with pJZ12
Description: as §2

[7] = system: MphR variant V90I (clone E7/epE7; nt A4T in RBS, aa V90I; SEQ ID NO: 4, 30); test: MphR-GFP biosensor dose-response, clone V90I (E7); assay type: cell-based, Escherichia coli; conditions: Table 11
Description: as §2

[8] = target: T4, MphR variant T17R (QCMS3D6; SEQ ID NO: 6, 34) (Escherichia coli, UniProt Q9EVJ6, T17R); test: MphR-GFP biosensor dose-response, clone T17R; assay type: cell-based
T4 construct: E. coli TOP10 GFP biosensor
Description: (§3) In Table 1, Hill functions were used to derive biosensor transfer functions. K1/2 is the inducer concentration at half maximal induction. Cooperativity is derived from the Hill function to indicate cooperative ligand binding between protein monomers of the MphR dimer. Dynamic range is the GFP maximal response minus the minimum GFP response, which in all cases was the response with no ligand. The linear range of detection is the linear portion of the dose-response curve with a slope R^2=0.95 or higher.

[9] = target: T5, MphR variant T27G/Q65M (QCMS5B4; SEQ ID NO: 8, 36) (Escherichia coli, UniProt Q9EVJ6, Q65M/T17G); test: MphR-GFP biosensor dose-response, clone T27G/Q65M; assay type: cell-based
T5 construct: E. coli TOP10 cells with plasmid pJZ12
Description: as §3

[10] = target: T6, MphR variant T27A/M59E (QCMS5D7; SEQ ID NO: 9, 37) (Escherichia coli, UniProt Q9EVJ6, M59E/T17A); test: MphR-GFP biosensor dose-response, clone T27A/M59E; assay type: cell-based; conditions: Table 1
T6 construct: E. coli TOP10 GFP biosensor
Description: as §3

[11] = system: MphR variant T27A/M59E (QCMS5D7; SEQ ID NO: 9, 37); test: MphR-GFP biosensor dose-response, clone T27A/M59E; assay type: cell-based, Escherichia coli; conditions: Table 11
Description: as §3

[12] = target: T7, wild-type MphR with RBS mutations A1T/G2T/A3C (smRBS1A1, RBS TTCAGGT; SEQ ID NO: 53) (Escherichia coli, UniProt Q9EVJ6); test: MphR-GFP biosensor dose-response, smRBS1A1; assay type: cell-based
T7 construct: GFP reporter in E. coli
Description: as §1

[13] = target: T8, wild-type MphR with mutated RBS CTGAGGT (smRBS1G6) (Escherichia coli, UniProt Q9EVJ6); test: MphR-GFP biosensor dose-response, smRBS1G6; assay type: cell-based; conditions: Table 4
T8 construct: GFP reporter in E. coli
Description: as §1

[14] = target: T9, wild-type MphR with mutated RBS AAAGGTT (smRBS2E1; SEQ ID NO: 55) (Escherichia coli, UniProt Q9EVJ6); test: MphR-GFP biosensor dose-response, smRBS2E1; assay type: cell-based; conditions: Table 4
T9 construct: GFP reporter in E. coli
Description: as §1

[15] = target: T10, MphR variant A16T/T154M/M155K with E7 RBS mutation (M2D6-E7RBS) (Escherichia coli, UniProt Q9EVJ6, A16T/M155K/T154M); test: MphR-GFP biosensor dose-response, M2D6-E7RBS; assay type: cell-based
T10 construct: E. coli GFP biosensor

MphR variant R122T = MphR variant R122T (Escherichia coli, UniProt Q9EVJ6, R122T); test: MphR-GFP biosensor dose-response, R122T; assay type: cell-based; conditions: for Hill coefficient: Table 8
[16] = target: T11, wild-type MphR with E7 ribosome binding site mutation only (WT E7-RBS; SEQ ID NO: 32) (Escherichia coli, UniProt Q9EVJ6); test: cell-based
T11 construct: GFP reporter in E. coli
Description: as §1
To confirm this, new versions of A3 and E7 were constructed that either only included the RBS mutations or the amino acids for each clone.

CC[C@H]1OC(=O)[C@H](C)[C@@H](O[C@@H]2O[C@H](C)C[C@H](N(C)C)[C@H]2O)[C@@H](C)C[C@@H](C)C(=O)/C=C/[C@H]1C [YC-17]
EC50 ([1]; K1/2, Table 12): 19.6 ± 0.6 µM | EC50 [2]: 0.49 ± 0.05 µM | times more sensitive vs. WT [2]: 40 times more

CC[C@H]1OC(=O)[C@H](C)[C@@H](O[C@H]2C[C@@](C)(OC)[C@@H](O)[C@H](C)O2)[C@H](C)[C@@H](O[C@@H]2O[C@H](C)C[C@H](N(C)C)[C@H]2O)[C@](C)(O)C[C@@H](C)/C(=N\OCOCCOC)[C@H](C)[C@@H](O)[C@]1(C)O [roxithromycin]
EC50 ([1]; K1/2, Table 6): 67.2 ± 3.41 µM | EC50 ([1]; K1/2, Table 7): 74.1 µM | activation [3]: little to no activation

CC[C@H]1OC(=O)[C@H](C)C(=O)[C@H](C)[C@@H](O[C@@H]2O[C@H](C)C[C@H](N(C)C)[C@H]2O)[C@@H](C)C[C@@H](C)C(=O)/C=C/[C@H]1C [narbomycin]
fold induction at 5 µM ([1]; read-out: Activation ratio (5 uM/0 uM)): 4

CC[C@H]1OC(=O)[C@H](C)[C@@H](O[C@H]2C[C@@](C)(OC)[C@@H](O)[C@H](C)O2)[C@H](C)[C@@H](O[C@@H]2O[C@H](C)C[C@H](N(C)C)[C@H]2O)[C@](C)(O)C[C@@H](C)C(=O)[C@H](C)[C@@H](O)[C@H]1C [erythromycin B]
EC50 ([1]; K1/2, Table 9): 1.72 µM | Cooperativity ([1]; Table 9): 1.99 | activation of GFP expression under control of WT MphR [1]: activate MphR-WT in a nearly identical manner

CC[C@H]1OC(=O)[C@H](C)[C@@H](O[C@H]2C[C@@](C)(OC)[C@@H](O)[C@H](C)O2)[C@H](C)[C@@H](O[C@@H]2O[C@H](C)C[C@H](N(C)C)[C@H]2O)[C@](C)(O)C[C@@H](C)C(=O)[C@H](C)[C@@H](O)[C@]1(C)O [erythromycin A]
Cooperativity ([1]; Table 1, derived from the Hill function): 4.44 ± 1.52 | Hillc ([1]; Table 4): 3.6 ± 0.3 | Hill coefficient ([1]; Table 8): 3.52 | Cooperativity ([1]; Table 9): 3.39 | activation of GFP expression under control of WT MphR [1]: good activator | Cooperativity [4]: 1.80 ± 0.01 | times more sensitive vs. WT [5]: 3.6 times more | Cooperativity [6]: 2.84 ± 0.42 | times more sensitive vs. WT [7]: 3.0 times more | Cooperativity ([8]; Table 1): 3.16 ± 0.13 | times more sensitive vs. WT ([8]; Table 11): 2.4 times more | Cooperativity ([9]; Table 1): 2.92 ± 0.17 | times more sensitive vs. WT ([9]; Table 11): 1.5 times more | Cooperativity [10]: 2.59 ± 0.04 | times more sensitive vs. WT [11]: 2.0 times more | Hillc ([12]; Table 4): 1.7 ± 0.1 | times more sensitive vs. WT ([12]; Table 11): 9.9 times more | Hillc [13]: 5.4 ± 1.2 | Hillc [14]: 3.9 ± 0.5 | enhanced sensitivity [15]: 2 fold | Hill coefficient (MphR variant R122T): 2.39

CC[C@H]1OC(=O)[C@H](C)[C@@H](O)[C@@H](C)C[C@@H](C)C(=O)/C=C/[C@H]1C [Compound 10-DML, 10-deoxymethynolide]
activation of GFP expression under control of WT MphR [1]: neither WT or D3 MphR is activated | activation ([2]; result in words, FIG. 4C): neither WT or D3 MphR is activated

CC[C@H]1OC(=O)[C@H](C)C(=O)[C@H](C)[C@@H](O[C@@H]2O[C@H](C)C[C@H](N(C)C)[C@H]2O)[C@@H](C)C[C@@H](C)C(=O)/C=C/[C@]1(C)O [pikromycin]
EC50 ([1]; K1/2, Table 5): 97 ± 2 µM | EC50 ([1]; K1/2, Table 14): 96.6 ± 2.7 µM | EC50 [16]: 50 ± 20 µM | EC50 [12]: 48 ± 5 µM | sensitivity improved, compared to the wild-type MphR [12]: 2 fold | EC50 [2]: 0.81 ± 0.02 µM | times more sensitive vs. WT [2]: 118 times more

CC[C@H]1OC(=O)[C@H](C)[C@@H](O[C@H]2C[C@@](C)(OC)[C@@H](O)[C@H](C)O2)[C@H](C)[C@@H](O[C@@H]2O[C@H](C)C[C@H](N(C)C)[C@H]2O)[C@](C)(O)C[C@@H](C)CN(C)[C@H](C)[C@@H](O)[C@]1(C)O [azithromycin]
EC50 ([1]; K1/2, Table 6): 0.6 ± 0.02 µM | EC50 ([1]; K1/2, Table 7): 0.6 µM | activation [3]: little to no activation

CC[C@H]1OC(=O)[C@H](C)[C@@H](O[C@H]2C[C@@](C)(O)[C@@H](O)[C@H](C)O2)[C@H](C)[C@@H](O[C@@H]2O[C@H](C)C[C@H](N(C)C)[C@H]2O)[C@](C)(O)C[C@@H](C)C(=O)[C@H](C)[C@@H](O)[C@]1(C)O [erythromycin C]
activation of GFP expression under control of WT MphR [1]: activate MphR-WT in a nearly identical manner

CC[C@H]1OC(=O)[C@H](C)[C@@H](O[C@H]2C[C@@](C)(OC)[C@@H](O)[C@H](C)O2)[C@H](C)[C@@H](O[C@@H]2O[C@H](C)C[C@H](N(C)C)[C@H]2O)[C@](C)(OC)C[C@@H](C)C(=O)/C(C)=C/[C@]1(C)O [Solithromycin biosynthetic intermediate]
EC50 ([1]; K1/2, FIG. 20): 70.9 µM | detects the intermediate at concentrations as low as ([2]; FIG. 20): 0.1 µM | times more sensitive vs. WT [2]: 52 times more

CC[C@H]1OC(=O)[C@H](C)[C@@H](O)[C@H](C)[C@@H](O)[C@@H](C)C[C@@H](C)C(=O)[C@H](C)[C@@H](O)[C@H]1C [Compound 6dEB, 6-deoxyerythronolide B]
activation of GFP expression under control of WT MphR [1]: failed to activate GFP expression

CC[C@H]1OC(=O)[C@H](C)[C@@H](O[C@H]2C[C@@](C)(OC)[C@@H](O)[C@H](C)O2)[C@H](C)[C@@H](O[C@@H]2O[C@H](C)C[C@H](N(C)C)[C@H]2O)[C@](C)(OC)C[C@@H](C)C(=O)[C@H](C)[C@@H](O)[C@]1(C)O [clarithromycin, 6-O-methylerythromycin]
EC50 [15]: 12.7 µM | EC50 (MphR variant R122T): 24.2 µM | Hill coefficient (MphR variant R122T): 3.03
